Results as given in US20240131007A1, “METHODS AND COMPOSITIONS FOR PICORNAVIRUS ANTI-VIRAL AGENTS” (University of Connecticut, priority 2022, published 2024).
Entries after “also recorded” stand apart in the source; their conditions may differ. Like-named read-outs stand apart in the source and are kept apart here.

Experiments:
EV-A71 Δ2C^116-329 [1] = molecular target: T1, EV-A71 Δ2C^116-329 (Human enterovirus 71, UniProt Q66478); test: biochemical; type: biochemical
T1 construct: EV-A71 Δ2C (amino acids 116-329) was designed with; made in house; host or cells: E. coli Rosetta 2(DE3) pLysS, pMALc5x vector

EV-A71 = test: CPE inhibition assay (Cell Titer Glo) against EV-A71 in Vero cells; type: cell-based, Enterovirus A71; conditions: for IC50: Enterovirus A, EVA71, EV-A71, Vero cells
EV-A71 Δ2C^116-329 [2] = molecular target: T1, EV-A71 Δ2C^116-329; type: binding; conditions: 0.02 μM to 200 μM compound
EV-D68 = test: CPE inhibition assay against EV-D68 in Vero cells; type: cell-based; conditions: Enterovirus D, EVD68, read-out: IC50 for virus induced CPE inhibition
[3] = tested on: poliovirus Mahoney strain; test: microbe, parasite or virus in culture; type: cell-based; conditions: Enterovirus C, Vero, read-out: IC50 for virus induced CPE inhibition
[4] = tested on: coxsackievirus-B3 (CV-B3); test: CPE inhibition assay against CV-B3 in HeLa cells; type: cell-based
PV-1 = type: cell-based, Poliovirus
CV-B3 = test: NIAID cytopathic effect assay, CV-B3; type: cell-based, Coxsackievirus B3
[5] = tested on: Eastern equine encephalitis virus; type: cell-based
human echovirus-11 = test: NIAID cytopathic effect assay, human echovirus-11; type: cell-based
human echovirus-30 = test: NIAID cytopathic effect assay, human echovirus-30; type: cell-based
influenza A (H1N1) = test: NIAID cytopathic effect assay, influenza A (H1N1); type: cell-based
West Nile virus = test: NIAID cytopathic effect assay, West Nile virus; type: cell-based
[6] = tested on: Middle East Respiratory Syndrome; type: cell-based
in vitro [7] = conditions: African green monkey
in vitro [8] = test: in vitro
EV-A71 replicon = EV-A71 replicon assay in HeLa cells; conditions: 1, 5 or 25 μM, 14 hours post transfection
EV-71 [9] = test: microbe, parasite or virus in culture; conditions: Enterovirus A, EV71, read-out: EC90 μM
[10] = NIAID secondary assay, Virus Yield Reduction, EV-68
EV-68 [11] = test: as above; conditions: Enterovirus D, EV68, read-out: EC90 μM
[12] = NIAID secondary assay, Neutral Red (CPE/Tox), EV-71
EV-71 [13] = test: as above; conditions: Enterovirus A, EV71, read-out: EC50 μM
[14] = NIAID secondary assay, Neutral Red (CPE/Tox), EV-68
EV-68 [15] = test: as above; conditions: Enterovirus D, EV68, read-out: EC50 μM
[16] = NIAID Antiviral Program for Pandemics primary assay (CPE/Tox), EV-71; conditions: CC50 µM, primary assay, EV-71
EV-71 [17] = test: as above; conditions: Enterovirus A
[18] = NIAID Antiviral Program for Pandemics primary assay (CPE/Tox), EV-68; conditions: CC50 µM, primary assay, EV-68
EV-68 [19] = test: as above; conditions: Enterovirus D

T1 sequence (Q66478 1227-1440, stated change not applied): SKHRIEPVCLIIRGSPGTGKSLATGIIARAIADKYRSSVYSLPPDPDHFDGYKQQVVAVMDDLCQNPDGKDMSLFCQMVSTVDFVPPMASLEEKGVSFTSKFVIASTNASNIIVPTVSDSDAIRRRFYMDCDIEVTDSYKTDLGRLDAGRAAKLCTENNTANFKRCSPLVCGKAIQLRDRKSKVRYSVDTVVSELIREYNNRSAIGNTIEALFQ

With Cc1ccc2[nH]c(-c3ccc(NC(=O)c4cccs4)cc3)nc2c1 [Compound 36, N-[4-(5-methyl-1H-benzimidazol-2-yl)phenyl]-2-thiophenecarboxamide] the IC50 (EV-A71 Δ2C^116-329 [1]) was 23.4 µM, the “dose dependence of inhibition of the ATPase function of Δ2C^116-329” value (EV-A71 Δ2C^116-329 [1]; dose response) was “clear dose-dependent response” and the “Selectivity Index” value (EV-A71) was 29.59. For the same compound, the selectivity index (EV-A71) was 29.6, the IC50 (EV-A71; read-out: IC50 for inhibition of virus-induced CPE) was 2.66 µM and the IC50 (EV-A71; Table 8, virus-induced CPE, read-out: IC50) was 2.66 µM. The “shift in melting temperature (Tm) of Δ2C^116-329” value (EV-A71 Δ2C^116-329 [2]) was “dose-dependent increase in the Tm”, the IC50 (EV-D68) was 0.85 µM and the IC50 [3] was 1.7 µM. The “inhibition of CV-B3” value [4] was “did not inhibit; also recorded: not active”, the “activity against PV-1” value (PV-1) was “no activity” and the “activity against CV-B3” value (CV-B3) was “no activity”. For the same compound, the “activity against Eastern equine encephalitis virus” value [5] was “no activity”, the “activity against human echovirus-11” value (human echovirus-11) was “no activity” and the “activity against human echovirus-30” value (human echovirus-30) was “no activity”. The “activity against influenza A (H1N1)” value (influenza A (H1N1)) was “no activity”, the “activity against West Nile virus” value (West Nile virus) was “no activity” and the “activity against Middle East Respiratory Syndrome” value [6] was “no activity”. For the same compound, the CC50 at 3 days (in vitro [7]; CC50) was 78.7 µM, the CC50 at 3 days (in vitro [7]; CC50 (μM)) was 78.7 µM and the CC50 (in vitro [8]) was 27 µM. For the same compound, the “number of reporter positive cells compared with the untreated control” value (EV-A71 replicon) was “no statistically significant difference”, the EC90 (EV-71 [9]) was 3.2 µM and the CC50 [10] was 9.4 µM. For the same compound, the EC90 (EV-68 [11]) was 0.59 µM, the CC50 [12] was 25 µM and the EC50 (EV-71 [13]) was 1.7 µM. It also gave a CC50 [14] of 3.5 µM, an EC50 (EV-68 [15]) of 0.52 µM and a CC50 ([16]; Neutral Red (CPE/Tox)) of 42 µM. The CC50 ([16]; Visual (CPE/Tox)) was 32 µM, the EC50 (EV-71 [17]; EV71, read-out: EC50 μM, primary assay, EV-71, Neutral Red (CPE/Tox)) was 4.7 µM and the EC50 (EV-71 [17]; EV71, read-out: EC50 μM, primary assay, EV-71, Visual (CPE/Tox)) was over 32 µM. The EC50 (EV-71 [17]; EV71|EVA71, read-out: EC50 against EV-A71, text, primary cytopathic effect assay) was 4.2 µM, the CC50 ([18]; Neutral Red (CPE/Tox)) was 9 µM and the CC50 ([18]; Visual (CPE/Tox)) was 24 µM. For the same compound, the EC50 (EV-68 [19]; EV68, read-out: EC50 μM, primary assay, EV-68, Neutral Red (CPE/Tox)) was 0.39 µM, the EC50 (EV-68 [19]; EV68, read-out: EC50 μM, primary assay, EV-68, Visual (CPE/Tox)) was 0.52 µM and the EC50 (EV-68 [19]; EV68|EVD68, read-out: EC50 against EV-D68, text, primary cytopathic effect assay) was 0.39 to 0.52 µM.
